What was measured:
[1] = test system: blackgrass (Alopecurus myosuroides); experiment: Efficiency test of the herbicidal composition on blackgrass in field crops; format: in vivo; details: for percentage of weeds eliminated, Trial No. ALS12H48 -05: 44 DAA; for percentage of weeds eliminated, Trial No. ALS11H56-01: 50 DAA; for Maximum percentage of weeds eliminated: maximum of the trials; for Maximum percentage of weeds eliminated / Minimum percentage of weeds eliminated: 44-50 DAA; for Minimum percentage of weeds eliminated: minimum of the trials
Protocol: Trials were also carried out to show the efficiency of the herbicidal composition referred to in the invention on a second weed called blackgrass. This plant is an annual plant and has traditionally been seen as a weed in cultivated fields.
The composition was tested on crops including crops of beetroot (Sugar beet, Beta vulgaris), oilseed rape (OSR, Brassica napus).
The same compounds that were used in Example 1 were evaluated for efficiency.
In the same manner as for Example 1, different trials were carried out in different fields, in each which a plant of interest was cultivated.
In this example, tests were carried out on two plots of oilseed rape, on the one hand, and in a lot of beetroot on the other hand.
The efficiency of different products and the herbicidal composition referred to in the invention have been evaluated at different intervals following the application (DAA) of the aforementioned products onto the crop in question.
For example, the efficiency of products has been measured at 44, 46 and 50 days following application of the products.

[2] = test system: rye-grass (Lolium multiflorum); experiment: Efficiency test of the herbicidal composition on rye-grass in oilseed rape fields; format: in vivo; details: for percentage of weeds eliminated, Trial ALS11H56-02 / percentage of weeds eliminated, Trial ALS11H56-04 / percentage of weeds eliminated, Trial ALS12H56-03: crop OSR; for percentage of weeds eliminated, Trial ALS11H56-02 / percentage of weeds eliminated, Trial ALS11H56-04: 53 DAA; for percentage of weeds eliminated, Trial ALS12H56-03: 58 DAA; for Maximum percentage of weeds eliminated: maximum of three OSR trials; for Maximum percentage of weeds eliminated / Minimum percentage of weeds eliminated: 53-58 DAA; for Minimum percentage of weeds eliminated: minimum of three OSR trials
Text: This plant, also called […] or Italian rye-grass (Lolium multiflorum) is traditionally considered to be a pest.
The composition has been tested on different parcels of oilseed rape (OSR for Oilseed rape, Brassica napus).
Findings relating to damages caused by the different compounds that were trialed are set out in percentages of weeds eliminated from 0 to 100% with respect to a trialed lot in which no herbicidal treatment was applied. The number, 0, corresponds to no observed damage to weeds whereas the number, 100, corresponds to an elimination of the entirety of the weeds.
Further, a volume of 0.8 L of the aforementioned composition has been applied per hectare to the treated lot.
Quizalofop-p-ethyl and flauzifop-p-butyl belong to the aryloxyphenoxypropionate family. A volume of 1.2 L of quizalofop-p-ethyl per hectare and a volume of 1.5 L of flauzifop-p-butyl per hectare have respectively been applied.
The compositions—ALSNC10HCLQ01 0.8 and Q+C 1:1 (0.4-0.5 liters per hectare) and quizalofop-p-ethyl (1.2 liters per hectare) which were tested have been diluted, prior to their application, in 1 L of adjuvant oil (Actirob).
Different trials have been conducted in different fields where oilseed rape (OSR) is grown. The efficiency of different products and of the herbicidal composition referred to in the invention have been evaluated at different time intervals following the application of the said products to the crop in question (DAA means “days after application”). For example, the efficiency of products has been measured 53 and 58 days after application to the field of oilseed rape. These intervals following application of the composition are necessary and adequate to enable the ultimate efficiency of the trialed products to be judged.

Structure (SMILES) | percentage of weeds eliminated, Trial No. ALS12H48 -05 ([1]; crop OSR) [%] | percentage of weeds eliminated, Trial No. ALS11H56-01 ([1]; crop OSR) [%] | Maximum percentage of weeds eliminated [1] [%] | Minimum percentage of weeds eliminated [1] [%] | percentage of weeds eliminated, Trial ALS11H56-02 [2] [%] | percentage of weeds eliminated, Trial ALS11H56-04 [2] [%] | percentage of weeds eliminated, Trial ALS12H56-03 [2] [%] | Maximum percentage of weeds eliminated [2] [%] | Minimum percentage of weeds eliminated [2] [%] | percentage of weeds eliminated, Trial No. ALS11H42-02 ([1]; crop OSR, 46 DAA) [%]
CCCCOC(=O)[C@@H](C)Oc1ccc(Oc2ccc(C(F)(F)F)cn2)cc1 [flauzifop-p-butyl] | 52 | 76 | 76 | 52 | 3 | 66 | 46 | 66 | 3 | 
CCOC(=O)[C@@H](C)Oc1ccc(Oc2cnc3cc(Cl)ccc3n2)cc1 [quizalofop-p-ethyl] | 50 | 63 | 63 | 30 | 26 | 76 | 68 | 76 | 26 | 30

Source: patent US10939680B2, “Herbicidal composition” (priority 2014, dated 2021)
